Laboratory results reported in patent US20080261994A1, “CYCLOPROPANE COMPOUNDS AND PHARMACEUTICAL USE THEREOF” (Japan Tobacco Inc., priority 2003, published 2008).
Like-named read-outs stand apart in the source and are kept apart here.

What was measured:
Type in all cases: biochemical
Recombinant Human MMP-13 = target: T1, Recombinant Human MMP-13 (Homo sapiens, UniProt P45452); assay: MMP-13 inhibitory activity (MMP-13 specific fluorescent substrate with quencher)
T1 construct: purchased R&D systems 511-MM
Experimental: Inhibitory activity of tested compounds on MMP-13 was measured using MMP-13 specific fluorescent substrate with quencher.
(§1) The enzyme and substrate were diluted with Tris-HCl buffer, and test compounds were diluted with dimethyl sulfoxide (DMSO).
Test compounds and the enzyme (Recombinant Human MMP-13: R&D systems, 511-MM) were added into 96-well plate. The reaction was initiated by adding synthetic substrate (7-MCA-Pro-CHA-Gly-NVal-His-Ala-DPA: enzyme systems products, Met-06) into the plate. After incubation at 25° C. for 1 h, the reaction was terminated by addition of reaction terminating solution containing acetic acid. Fluorescence intensity of each well was measured (Ex: 325 nm, […] 405 nm) and the MMP-13 inhibitory activity of the compound in each well (%) was calculated based on the values of enzyme-free well and inhibitor-free well. The inhibitory activity of the compound was represented as IC50 (μM).

MMP-1 = target: T2, MMP-1 (Homo sapiens, UniProt P03956); assay: MMP-1 inhibitory action (Type I collagen Activity Measurement kit, FITC-labeled collagen type I)
T2 sequence (P03956 100-469): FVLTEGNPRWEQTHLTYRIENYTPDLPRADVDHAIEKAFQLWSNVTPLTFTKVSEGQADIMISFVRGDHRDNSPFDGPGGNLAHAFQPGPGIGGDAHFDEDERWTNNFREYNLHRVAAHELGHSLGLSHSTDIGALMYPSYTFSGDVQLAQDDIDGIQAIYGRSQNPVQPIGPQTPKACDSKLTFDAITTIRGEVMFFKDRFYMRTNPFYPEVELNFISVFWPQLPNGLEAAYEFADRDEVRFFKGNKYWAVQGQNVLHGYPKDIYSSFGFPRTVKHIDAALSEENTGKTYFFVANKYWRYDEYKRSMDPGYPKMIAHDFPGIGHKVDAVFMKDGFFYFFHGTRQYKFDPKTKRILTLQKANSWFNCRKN
Experimental: For MMP-1 Assay, Type I collagen Activity Measurement kit (YAGAI YU-72013) modified to a 96-well plate format was used.
The principle of the kit is based on the property of collagen that becomes soluble in ethanol after being cleaved by MMP-1.
as §1
The enzyme and test compounds were added into 96-well plate, and fluorescein isothiocianate (FITC)-labeled collagen type I was added as a substrate and the mixture was incubated at 37° C. for 3 hr.
The reaction was terminated by addition of Tris-HCl buffer containing ethanol. After centrifugation, the supernatant containing denatured substrate was transferred to another 96-well plate. The collagenase activity of MMP-1 was determined by measuring FITC fluorescence intensity (excitation wavelength 485 nm, emission wavelength 530 nm) of each well. The inhibitory activity of the compound in each well (%) was calculated based on the values of enzyme-free well and inhibitor-free well. The inhibitory activity of the compound was represented as IC50 (μM).

aggrecanase-1 = target: T3, aggrecanase-1 (Homo sapiens, UniProt O75173); assay: Aggrecanase-1 inhibitory action (Particle Assay, GAG release from aggrecan-containing polyacrylamide particles)
T3 sequence (O75173 213-837): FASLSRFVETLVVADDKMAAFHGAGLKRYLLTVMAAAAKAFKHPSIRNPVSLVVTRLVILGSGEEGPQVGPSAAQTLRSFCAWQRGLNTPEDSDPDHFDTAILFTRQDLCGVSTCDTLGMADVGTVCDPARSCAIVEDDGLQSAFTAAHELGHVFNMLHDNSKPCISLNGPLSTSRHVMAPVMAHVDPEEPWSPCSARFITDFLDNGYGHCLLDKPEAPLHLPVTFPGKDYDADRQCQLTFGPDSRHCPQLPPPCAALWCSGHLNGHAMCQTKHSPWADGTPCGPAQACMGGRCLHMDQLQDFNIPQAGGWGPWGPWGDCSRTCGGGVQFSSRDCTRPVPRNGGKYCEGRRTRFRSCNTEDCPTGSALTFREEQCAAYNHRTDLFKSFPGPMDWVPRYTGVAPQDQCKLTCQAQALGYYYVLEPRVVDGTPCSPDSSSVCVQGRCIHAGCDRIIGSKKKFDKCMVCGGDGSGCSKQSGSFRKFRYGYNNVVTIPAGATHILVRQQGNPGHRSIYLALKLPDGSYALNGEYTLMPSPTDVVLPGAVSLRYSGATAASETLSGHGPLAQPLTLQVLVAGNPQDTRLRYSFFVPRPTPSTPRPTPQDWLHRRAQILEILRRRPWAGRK
Experimental: Particle Assay was used for determination of aggrecanase activity.
as §1
Test compounds and the enzyme were added into 96-well plate, and polyacrylamide particles containing aggrecan were added as a substrate and the mixture was incubated at 37° C. for 15 hr.
After incubation, the supernatant was transferred to another plate, and mixed with 1,9-dimethylmethylene blue. The absorbence at 595 nm was measured to quantify the amount of glycosaminoglycan (GAG) released in the reaction supernatant. Whale chondroitin sulfate was used as the standard of GAG. The inhibitory activity of the compound in each well (%) was calculated based on the values of enzyme-free well and inhibitor-free well. The inhibitory activity of the compound was represented as […] (μM).

[1] = Recombinant Human MMP-13, fluorescent substrate, 25° C. for 1 h, read-out: IC50 MMP13 (Experimental Example 3)
[2] = MMP-1 inhibitory action, FITC-labeled collagen type I, 37° C. for 3 hr, read-out: IC50 MMP1 (Experimental Example 2)
[3] = aggrecanase-1 inhibitory action, read-out: IC50 AG1 (Experimental Example 1)
[4] = Experimental Example 2, read-out: IC50 MMP1
[5] = Experimental Example 1, read-out: IC50 AG1
[6] = Experimental Example 3, read-out: IC50 MMP13

SMILES | IC50 (Recombinant Human MMP-13; [1]) | IC50 (MMP-1; [2]) | IC50 (aggrecanase-1; [3]) | IC50 (MMP-1; [4]) | IC50 (aggrecanase-1; [5]) | IC50 (Recombinant Human MMP-13; [6])
O=C(O)[C@]1(NS(=O)(=O)c2ccc(-c3cc(C(F)(F)F)on3)s2)[C@H](CO)[C@@H]1c1ccccc1 (relative stereo) [Example 2-10, (1R*,2R*,3R*)-2-hydroxymethyl-3-phenyl-1-[5-(5-trifluoromethyl-isoxazol-3-yl)-thiophene-2-sulfonylamino]-cyclopropanecarboxylic acid] | < 0.1 µM | < 1 µM | < 0.1 µM |  |  | 
O=C(NO)[C@]1(NS(=O)(=O)c2ccc(OCc3ccc(Cl)cc3Cl)cc2)[C@@H]2c3ccccc3C[C@@H]21 (relative stereo) [Example 2-13, (1R*,1aS*,6aS*)-1-[4-(2,4-dichloro-benzyloxy)-benzenesulfonylamino]-1,1a,6,6a-tetrahydro-cyclopropa[a]inden-1-carboxylic acid hydroxyamide] | < 0.1 µM | ≥ 10 µM | < 0.1 µM |  |  | 
O=C(NO)C1(NS(=O)(=O)c2ccc(OCc3ccc(Cl)cc3Cl)cc2)CC1c1ccccc1 (stereo not drawn) [Example 1-2, 1-[4-(2,4-Dichlorobenzyloxy)benzenesulfonylamino]-2-phenylcyclopropanecarboxylic acid hydroxyamide] | < 0.1 µM | ≥ 1 µM | < 0.1 µM |  |  | 
O=C(O)C1(NS(=O)(=O)N2CCN(c3cccc(C(F)(F)F)c3)CC2)CC1c1ccccc1 (stereo not drawn) [Example 2-28] | ≥ 10 µM |  | ≥ 1 µM |  |  | 
O=C(O)C1(NS(=O)(=O)N2CCN(c3ccc(C(F)(F)F)cc3)CC2)CC1c1ccccc1 (stereo not drawn) [Example 2-29] | < 0.1 µM |  | ≥ 1 µM |  |  | 
O=C(O)C1(NS(=O)(=O)N2CCN(c3ccc(Cl)c(C(F)(F)F)c3)CC2)CC1c1ccccc1 (stereo not drawn) [Example 2-30] | ≥ 1 µM |  | ≥ 1 µM |  |  | 
O=C(O)C1(NS(=O)(=O)N2CCN(c3cccc(Cl)c3)CC2)CC1c1ccccc1 (stereo not drawn) [Example 2-31] | ≥ 1 µM |  | ≥ 1 µM |  |  | 
COc1ccc(-c2ccc(S(=O)(=O)N[C@@]3(C(=O)O)C[C@@H]3c3ccccc3)s2)nn1 [Example 2-33] | < 1 µM |  | ≥ 1 µM |  |  | 
N#Cc1ccc(-c2ccc(S(=O)(=O)N[C@@]3(C(=O)O)C[C@@H]3c3ccccc3)s2)s1 [Example 2-34] | < 1 µM |  | ≥ 1 µM |  |  | 
O=C(O)C1(NS(=O)(=O)c2ccc(-c3ccc(Cl)cc3)s2)CC1Cc1ccccc1 (stereo not drawn) [Example 2-38] | < 1 µM |  | ≥ 1 µM |  |  | 
O=C(O)[C@]1(NS(=O)(=O)c2ccc(-c3ccc(C(F)F)s3)s2)C[C@@H]1c1ccccc1 [Example 2-102] |  | < 1 µM | < 1 µM |  |  | 
O=C(O)[C@]1(NS(=O)(=O)c2ccc(-c3nsc(CF)n3)s2)C[C@@H]1c1ccccc1 [Example 2-115] | < 1 µM |  | ≥ 1 µM |  |  | 
O=C(O)[C@]1(NS(=O)(=O)c2ccc(-c3csc4ccccc34)s2)C[C@@H]1c1ccccc1 [Example 2-118] |  | ≥ 1 µM | ≥ 1 µM |  |  | 
O=C(O)[C@]1(NS(=O)(=O)c2ccc(-c3cc4ccccc4o3)s2)C[C@@H]1c1ccccc1 [Example 2-122] |  | < 1 µM | ≥ 1 µM |  |  | 
O=C(O)C1(NS(=O)(=O)N2CCc3nc(-c4ccccc4)ncc3C2)CC1c1ccccc1 (stereo not drawn) [Example 2-127] |  | ≥ 10 µM | ≥ 10 µM |  |  | 
O=C(O)[C@]1(NS(=O)(=O)c2ccc(-c3cc4ccccn4c3)s2)C[C@@H]1c1ccccc1 [Example 2-135] | < 0.1 µM |  | ≥ 1 µM |  |  | 
O=C(O)C1(NS(=O)(=O)c2ccc(-c3ccc(Cl)cc3)s2)CC1c1ccccc1Br (stereo not drawn) [Example 2-167] |  | ≥ 10 µM | < 1 µM |  |  | 
O=C1Nc2ccccc2C2CC12NS(=O)(=O)c1ccc(-c2ccc(Cl)cc2)s1 (stereo not drawn) [Example 2-218] |  | ≥ 10 µM | ≥ 1 µM |  |  | 
CC(=O)Nc1ccc(-c2ccc(S(=O)(=O)N[C@@]3(C(=O)O)C[C@]3(C)c3ccccc3)s2)cc1 [Example 2-402] |  |  |  | ≥ 10 µM | ≥ 1 µM | 
O=C1NCc2ccccc2C2CC12NS(=O)(=O)c1ccc(-c2ccc(Cl)cc2)s1 (stereo not drawn) [Example 2-415] |  |  |  | ≥ 10 µM | ≥ 1 µM | 
Cc1cnc(-c2ccc(S(=O)(=O)N[C@@]3(C(=O)O)C(C)[C@@H]3c3ccccc3)s2)o1 (stereo partly drawn) [Example 2-417] |  |  |  | ≥ 1 µM | < 1 µM | 
Cc1cnc(-c2ccc(S(=O)(=O)N[C@@]3(C(=O)O)C[C@]3(C)c3ccccc3)s2)o1 [Example 2-418] |  |  |  | ≥ 1 µM | ≥ 1 µM | 
C[C@]1(c2ccccc2)C[C@@]1(NS(=O)(=O)c1ccc(N2CCC(F)(F)CC2)s1)C(=O)O [Example 2-455] |  |  |  |  | ≥ 1 µM | ≥ 1 µM
CC1[C@H](c2ccccc2)[C@]1(NS(=O)(=O)c1ccc(-c2cnc3ccccc3n2)s1)C(=O)O (stereo partly drawn) [Example 2-456] |  |  |  |  | ≥ 1 µM | ≥ 1 µM
CC1[C@H](c2ccccc2)[C@]1(NS(=O)(=O)c1ccc(-c2ccc3[nH]c(=O)sc3c2)s1)C(=O)O (stereo partly drawn) [Example 2-468] |  |  |  | ≥ 1 µM | < 1 µM | 
Cc1nc2cc(-c3ccc(S(=O)(=O)N[C@@]4(C(=O)O)C(C)[C@@H]4c4ccccc4)s3)ccc2s1 (stereo partly drawn) [Example 2-469] |  |  |  | ≥ 10 µM | ≥ 1 µM | 
C[C@]1(c2ccccc2)C[C@@]1(NS(=O)(=O)c1ccc(-c2ccc(N)cc2)s1)C(=O)O [Example 2-583] |  |  |  |  | ≥ 1 µM | ≥ 1 µM
C[C@]1(c2ccccc2)C[C@@]1(NS(=O)(=O)c1csc2ccc(-c3ccccc3)cc12)C(=O)O [Example 2-585] |  |  |  |  | ≥ 1 µM | ≥ 1 µM
Cn1nncc1-c1ccc(S(=O)(=O)N[C@@]2(C(=O)O)C[C@]2(C)c2ccccc2)s1 [Example 2-586] |  |  |  |  | ≥ 1 µM | ≥ 10 µM
CC1[C@H](c2ccccc2)[C@]1(NS(=O)(=O)c1ccc(-c2nc3cc(Cl)ccc3[nH]2)s1)C(=O)O (stereo partly drawn) [Example 2-604] |  |  |  | ≥ 1 µM | < 1 µM | 
